The results in this text go back to ChEMBL document CHEMBL6127116, “Discovery of Potent and Selective Blockers Targeting the Epilepsy-Associated KNa1.1 Channel” (J Med Chem, 2024).

The test system of series [1] is HEK293. Kind of series: Cytotoxicity against HEK293 cells assessed as reduction in cell viability at 10 uM by CCK8 method relative to control. The format is toxicity, cell-based. Conditions: human, hek293, 10 µM. (Formazan colour is commonly taken as a measure of viable cells.)
Series [2] is described as follows: Inhibition of KNa 1.1 (unknown origin). Also noted: species or system Homo sapiens.
In series [3] the target is T1, Potassium channel subfamily T member 1 (Homo sapiens, UniProt Q5JUK3).
T1 sequence (Q5JUK3 whole entry): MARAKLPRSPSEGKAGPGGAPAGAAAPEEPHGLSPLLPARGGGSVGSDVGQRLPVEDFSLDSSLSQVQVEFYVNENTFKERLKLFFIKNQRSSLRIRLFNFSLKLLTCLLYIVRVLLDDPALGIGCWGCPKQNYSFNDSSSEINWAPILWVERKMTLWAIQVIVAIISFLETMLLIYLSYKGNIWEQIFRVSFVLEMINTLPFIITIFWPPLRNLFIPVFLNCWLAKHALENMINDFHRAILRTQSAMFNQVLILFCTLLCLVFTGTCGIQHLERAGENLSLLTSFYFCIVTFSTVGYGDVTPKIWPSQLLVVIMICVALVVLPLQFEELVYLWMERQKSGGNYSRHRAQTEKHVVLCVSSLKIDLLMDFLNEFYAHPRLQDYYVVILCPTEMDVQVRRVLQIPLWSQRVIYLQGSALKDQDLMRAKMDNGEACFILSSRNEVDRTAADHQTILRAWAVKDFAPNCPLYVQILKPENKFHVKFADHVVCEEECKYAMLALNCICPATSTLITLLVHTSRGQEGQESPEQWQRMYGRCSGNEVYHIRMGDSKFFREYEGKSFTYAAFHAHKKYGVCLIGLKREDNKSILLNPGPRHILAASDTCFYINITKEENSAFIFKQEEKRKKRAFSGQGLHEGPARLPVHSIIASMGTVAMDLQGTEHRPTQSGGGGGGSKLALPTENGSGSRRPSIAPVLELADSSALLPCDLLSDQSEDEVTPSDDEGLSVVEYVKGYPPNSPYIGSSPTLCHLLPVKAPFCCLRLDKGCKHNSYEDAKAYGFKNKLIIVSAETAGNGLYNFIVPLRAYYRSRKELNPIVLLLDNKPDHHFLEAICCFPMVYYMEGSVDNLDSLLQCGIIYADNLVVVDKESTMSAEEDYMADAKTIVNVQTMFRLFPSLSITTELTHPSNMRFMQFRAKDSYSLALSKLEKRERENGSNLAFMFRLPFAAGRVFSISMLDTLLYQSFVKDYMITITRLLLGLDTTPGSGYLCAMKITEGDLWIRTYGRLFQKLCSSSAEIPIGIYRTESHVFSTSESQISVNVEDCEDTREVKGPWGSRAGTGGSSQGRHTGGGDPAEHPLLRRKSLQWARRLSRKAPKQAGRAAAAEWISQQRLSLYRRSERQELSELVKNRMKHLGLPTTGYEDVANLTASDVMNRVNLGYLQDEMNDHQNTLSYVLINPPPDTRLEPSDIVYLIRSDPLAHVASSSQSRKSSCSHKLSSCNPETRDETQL
Put plainly: Inhibition of human SLACK expressed in HEK293 cells.

The target in series [4] is Sodium channel protein type 5 subunit alpha (Homo sapiens, UniProt Q14524). Put plainly: Inhibition of Nav1.5 (unknown origin) expressed in HEK293T cells at 10 uM by patch-clamp electrophysiology method. The format is cell-based. In general terms: Patch clamp records ionic current or voltage across a cell membrane.
Chain of Sodium channel protein type 5 subunit alpha (Q14524 whole entry): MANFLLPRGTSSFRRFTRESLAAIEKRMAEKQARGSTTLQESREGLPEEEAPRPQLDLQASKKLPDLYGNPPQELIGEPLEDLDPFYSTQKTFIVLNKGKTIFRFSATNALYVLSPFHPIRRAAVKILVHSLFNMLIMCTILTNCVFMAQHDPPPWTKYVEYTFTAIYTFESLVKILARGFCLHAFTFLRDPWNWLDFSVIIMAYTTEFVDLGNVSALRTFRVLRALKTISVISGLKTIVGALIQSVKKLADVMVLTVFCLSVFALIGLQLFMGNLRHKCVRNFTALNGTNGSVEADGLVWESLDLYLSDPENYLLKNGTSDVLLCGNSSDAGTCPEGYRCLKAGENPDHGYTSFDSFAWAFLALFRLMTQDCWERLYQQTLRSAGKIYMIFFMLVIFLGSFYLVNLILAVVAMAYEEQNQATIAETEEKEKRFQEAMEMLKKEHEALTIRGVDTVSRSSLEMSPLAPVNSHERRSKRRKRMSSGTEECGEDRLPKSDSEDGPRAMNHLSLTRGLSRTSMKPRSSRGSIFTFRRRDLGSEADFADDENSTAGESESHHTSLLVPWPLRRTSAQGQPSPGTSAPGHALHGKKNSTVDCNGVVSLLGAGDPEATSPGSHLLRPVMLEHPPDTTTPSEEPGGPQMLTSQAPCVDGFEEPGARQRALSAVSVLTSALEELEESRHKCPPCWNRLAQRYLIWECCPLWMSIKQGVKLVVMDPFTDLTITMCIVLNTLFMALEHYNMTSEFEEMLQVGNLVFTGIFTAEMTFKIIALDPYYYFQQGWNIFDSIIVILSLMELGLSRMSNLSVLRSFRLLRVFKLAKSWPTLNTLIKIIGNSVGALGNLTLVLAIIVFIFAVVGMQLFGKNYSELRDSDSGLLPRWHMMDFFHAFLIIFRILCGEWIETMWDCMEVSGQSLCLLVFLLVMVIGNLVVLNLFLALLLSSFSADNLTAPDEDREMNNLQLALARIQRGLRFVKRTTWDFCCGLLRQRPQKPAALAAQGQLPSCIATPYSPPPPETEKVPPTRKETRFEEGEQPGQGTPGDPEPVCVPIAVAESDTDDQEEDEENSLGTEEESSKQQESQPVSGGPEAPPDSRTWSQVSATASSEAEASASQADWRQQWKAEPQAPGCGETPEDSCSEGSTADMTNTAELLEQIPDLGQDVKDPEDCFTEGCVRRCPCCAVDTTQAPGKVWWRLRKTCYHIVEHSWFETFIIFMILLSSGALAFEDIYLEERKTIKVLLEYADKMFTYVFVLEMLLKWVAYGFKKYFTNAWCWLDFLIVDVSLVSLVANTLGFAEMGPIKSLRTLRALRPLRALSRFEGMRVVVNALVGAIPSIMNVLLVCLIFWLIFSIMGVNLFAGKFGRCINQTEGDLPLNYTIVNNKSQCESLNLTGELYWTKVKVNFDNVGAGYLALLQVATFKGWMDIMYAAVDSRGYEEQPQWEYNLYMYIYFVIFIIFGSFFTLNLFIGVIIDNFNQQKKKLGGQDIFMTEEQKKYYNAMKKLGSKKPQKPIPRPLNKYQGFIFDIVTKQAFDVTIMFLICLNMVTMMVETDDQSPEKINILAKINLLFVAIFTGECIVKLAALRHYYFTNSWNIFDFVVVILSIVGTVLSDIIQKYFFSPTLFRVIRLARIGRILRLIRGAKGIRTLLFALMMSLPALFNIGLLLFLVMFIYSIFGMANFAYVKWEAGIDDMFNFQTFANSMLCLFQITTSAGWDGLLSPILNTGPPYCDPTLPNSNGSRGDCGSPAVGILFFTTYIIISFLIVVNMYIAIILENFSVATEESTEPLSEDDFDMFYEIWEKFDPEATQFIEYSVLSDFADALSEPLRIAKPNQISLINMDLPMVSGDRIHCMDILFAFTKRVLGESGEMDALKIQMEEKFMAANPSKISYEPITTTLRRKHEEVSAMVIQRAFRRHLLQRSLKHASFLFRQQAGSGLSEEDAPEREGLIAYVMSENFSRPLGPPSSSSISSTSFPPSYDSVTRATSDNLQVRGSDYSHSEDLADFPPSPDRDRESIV
Series [5] is described as follows: Cmax in male ICR mouse at 1 mg/kg, iv administered as single dose measured upto 24 hrs by HPLC analysis. The format is ADME, organism-based. Conditions: in vivo; call rule not given here.
Series [6] is described as follows: Tmax in male ICR mouse at 1 mg/kg, iv administered as single dose measured upto 24 hrs by HPLC analysis. In kind it is ADME, organism-based. Conditions: in vivo.
Series [7] can be described thus: Half life in male ICR mouse at 1 mg/kg, iv administered as single dose measured upto 24 hrs by HPLC analysis. In kind it is ADME, organism-based. Conditions: in vivo.
Series [8] can be described thus: AUC (0 to t) in male ICR mouse at 1 mg/kg, iv administered as single dose measured upto 24 hrs by HPLC analysis. In kind it is ADME, organism-based. Particulars: in vivo.
Series [9] can be described thus: Clearance in male ICR mouse at 1 mg/kg, iv administered as single dose measured upto 24 hrs by HPLC analysis. In kind it is ADME, organism-based. Particulars: in vivo.
A short description of series [10]: MRT (0 to t) in male ICR mouse at 1 mg/kg, iv administered as single dose measured upto 24 hrs by HPLC analysis. In kind it is ADME, organism-based. Particulars: in vivo.
Series [11] in a line: Volume of distribution at steady state in male ICR mouse at 1 mg/kg, iv administered as single dose measured upto 24 hrs by HPLC analysis. The format is ADME, organism-based. Conditions: in vivo, read-out: Vdss.
Series [12] can be described thus: Cmax in male ICR mouse at 10 mg/kg, po administered as single dose measured upto 24 hrs by HPLC analysis. Particulars: in vivo. The format is ADME, organism-based.
Series [13] in a line: Tmax in male ICR mouse at 10 mg/kg, po administered as single dose measured upto 24 hrs by HPLC analysis. Conditions: in vivo. In kind it is ADME, organism-based.
A short description of series [14]: Half life in male ICR mouse at 10 mg/kg, po administered as single dose measured upto 24 hrs by HPLC analysis. Particulars: in vivo. In kind it is ADME, organism-based.
Series [15] in a line: AUC (0 to t) in male ICR mouse at 10 mg/kg, po administered as single dose measured upto 24 hrs by HPLC analysis. In kind it is ADME, organism-based. Particulars: in vivo.
Series [16] can be described thus: MRT (0 to t) in male ICR mouse at 10 mg/kg, po administered as single dose measured upto 24 hrs by HPLC analysis. The format is ADME, organism-based. Particulars: in vivo.
Series [17] in a line: Oral bioavailability in male ICR mouse at 10 mg/kg administered as single dose measured upto 24 hrs by HPLC analysis. Particulars: in vivo. In kind it is ADME, organism-based.
The nature of series [18]: Drug concentration in male ICR mouse brain at 1 mg/kg, iv measured after 0.5 hrs by LC-MS/MS analysis. In kind it is ADME, organism-based. Particulars: read-out: Ct.
A short description of series [19]: Drug concentration in male ICR mouse plasma at 1 mg/kg, iv measured after 0.5 hrs by LC-MS/MS analysis. In kind it is ADME, organism-based.
Series [20] can be described thus: Drug concentration in male ICR mouse brain at 1 mg/kg, iv measured after 2 hrs by LC-MS/MS analysis. In kind it is ADME, organism-based. Conditions: read-out: Ct.
The nature of series [21]: Drug concentration in male ICR mouse plasma at 1 mg/kg, iv measured after 2 hrs by LC-MS/MS analysis. The format is ADME, organism-based.
Series [22] is described as follows: Drug concentration in male ICR mouse brain at 10 mg/kg, po measured after 0.5 hrs by LC-MS/MS analysis. In kind it is ADME, organism-based. Particulars: read-out: Ct.
Series [23] can be described thus: Drug concentration in male ICR mouse plasma at 10 mg/kg, po measured after 0.5 hrs by LC-MS/MS analysis. In kind it is ADME, organism-based.
The nature of series [24]: Drug concentration in male ICR mouse brain at 10 mg/kg, po measured after 2 hrs by LC-MS/MS analysis. The format is ADME, organism-based. Conditions: read-out: Ct.
Series [25] can be described thus: Drug concentration in male ICR mouse plasma at 10 mg/kg, po measured after 2 hrs by LC-MS/MS analysis. In kind it is ADME, organism-based.
Series [26] addresses Voltage-gated inwardly rectifying potassium channel KCNH2 (Homo sapiens, UniProt Q12809). Kind of series: Inhibition of human ERG expressed in Xenopus laevis oocytes by two-electrode voltage clamp method. The format is toxicity, cell-based, Oocyte.
Series [27] has as its target T1, Potassium channel subfamily T member 1. Kind of series: Inhibition of wild type human KNa1.1 expressed in HEK293T cells by patch-clamp electrophysiology method. The format is cell-based.

Chain of Voltage-gated inwardly rectifying potassium channel KCNH2 (Q12809 whole entry): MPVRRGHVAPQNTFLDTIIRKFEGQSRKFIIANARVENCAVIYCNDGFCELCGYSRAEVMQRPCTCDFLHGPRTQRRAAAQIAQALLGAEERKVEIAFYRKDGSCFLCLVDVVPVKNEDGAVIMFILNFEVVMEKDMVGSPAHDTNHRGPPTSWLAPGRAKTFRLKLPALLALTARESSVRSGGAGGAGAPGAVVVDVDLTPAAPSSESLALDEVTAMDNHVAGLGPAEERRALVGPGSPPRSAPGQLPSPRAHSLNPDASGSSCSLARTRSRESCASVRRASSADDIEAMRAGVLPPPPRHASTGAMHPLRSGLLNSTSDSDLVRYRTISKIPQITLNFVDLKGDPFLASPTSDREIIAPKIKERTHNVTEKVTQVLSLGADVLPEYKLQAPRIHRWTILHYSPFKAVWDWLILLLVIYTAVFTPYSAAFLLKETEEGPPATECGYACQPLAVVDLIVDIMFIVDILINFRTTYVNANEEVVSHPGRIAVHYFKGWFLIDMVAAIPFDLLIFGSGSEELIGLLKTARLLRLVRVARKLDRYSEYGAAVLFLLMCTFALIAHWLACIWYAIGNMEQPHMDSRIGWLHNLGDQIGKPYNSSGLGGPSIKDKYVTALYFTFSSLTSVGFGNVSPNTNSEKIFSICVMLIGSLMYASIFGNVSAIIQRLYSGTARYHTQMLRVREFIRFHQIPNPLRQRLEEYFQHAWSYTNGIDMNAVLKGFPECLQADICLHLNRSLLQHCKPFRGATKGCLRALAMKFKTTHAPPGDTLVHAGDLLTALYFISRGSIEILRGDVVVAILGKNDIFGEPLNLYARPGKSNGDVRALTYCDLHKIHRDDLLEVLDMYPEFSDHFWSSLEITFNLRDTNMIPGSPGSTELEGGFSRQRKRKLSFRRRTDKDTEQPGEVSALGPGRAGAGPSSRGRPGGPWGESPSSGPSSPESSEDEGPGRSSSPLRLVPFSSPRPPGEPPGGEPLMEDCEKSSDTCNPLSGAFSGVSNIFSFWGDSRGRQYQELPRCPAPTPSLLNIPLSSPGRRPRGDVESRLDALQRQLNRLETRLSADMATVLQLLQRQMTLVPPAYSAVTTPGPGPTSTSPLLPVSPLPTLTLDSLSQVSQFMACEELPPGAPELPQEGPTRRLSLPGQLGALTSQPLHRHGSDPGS

A word on the IC50: it is the concentration that inhibits the measured activity by half. A lower IC50 goes with greater potency. For the compound `C=C[C@H]1CN2CC[C@H]1C[C@@H]2[C@@H](O)c1ccnc2ccc(OC)cc12` [QUINIDINE], the Activity in [1] stood at 103.53%. Besides, in series [2], the midpoint of inhibition, the IC50, lay at 89.6 µM.
`COc1ccc(Cl)cc1NC(=O)CN1CCN(S(=O)(=O)N2CCC(C)CC2)CC1` registered an IC50 in series [3] of 1840 nM.
For `CN(C)CCCCNCc1c(OCc2ccc(F)cc2)ccc2ccccc12`, in series [4], the “inhibition (INH)” value was “Not Active”.
As to `CCOc1ccccc1S(=O)(=O)N1CC(c2nc(-c3ccsc3)no2)C1`, in series [2], half-maximal inhibition (IC50) required 2.1 µM.
As usually defined, the Cmax is the maximum level reached in the sampled fluid or tissue. As a reminder, the Tmax is the time at which the peak concentration occurs. As usually defined, the half-life is the time in which the quantity being followed falls by half. Low readings indicate fast loss, high ones slow loss. What is called AUC(0-t) is the area under the concentration-time curve up to a stated or last time point. Low values mean less exposure, high ones more exposure. Usually clearance stands for the volume of plasma or blood freed of the substance per unit of time. Lower therefore signals a low capacity for elimination. The term MRT last denotes the average time that molecules of a dose stay in the body. For orientation: bioavailability means dose-corrected exposure relative to a reference, in per cent. Low values mean poor availability, high ones good availability. As for `CN1CCC(NCc2c(OCc3ccc(Br)cc3)ccc3ccccc23)CC1`, the values for the Cmax in series [5] and in [12] were 25.4 ng/mL and 43.8 ng/mL, respectively. Moreover, the results for the time to peak (Tmax) in [6] and in [13] were 4.8 min and 10.2 min, respectively. Also, the half-life is 214 min in [7] and 434 min in [14]. Moreover, the values for the area under the curve AUC(0-t) at 24 h in series [8] and in [15] were 62 ng·h/mL and 110 ng·h/mL, respectively. Also, the clearance in [9] was 249 mL/min/kg. Further, the MRT last at 24 h in series [10] was 7.21 h; in series [16] it was 5.37 h. The Vd in series [11] worked out at 132 L/kg. The compound also gave a bioavailability in [17] of 17.8%. Besides, the concentration at 0.5 h in series [18] was determined as 960 ng/mL; in [19], 12.8 ng/mL; in series [22], 102 ng/mL; in series [23], 32.4 ng/mL. Besides, the concentration at 2 h amounted to 702 ng/mL in series [20], 4.16 ng/mL in series [21], 158 ng/mL in series [24] and 9.16 ng/mL in series [25]. Moreover, half-maximal inhibition in series [26] (IC50) required 14.9 µM.
With `CC(C)COCC(CN(Cc1ccccc1)c1ccccc1)N1CCCC1` (centres undefined) [BEPRIDIL], the values for the IC50 in series [27] and in series [2] were 16.3 µM and 6.36 µM, respectively.
